Consider 16 molecules from ChEMBL document CHEMBL1135313, “Bromotyrosine-derived natural and synthetic products as inhibitors of mycothiol-S-conjugate amidase” (Bioorg Med Chem Lett, 2002).

One may read the IC50 as the concentration that gives 50% inhibition. Lower therefore signals higher potency.

In the assay the target is T1, Mycothiol S-conjugate amidase (Mycobacterium tuberculosis, UniProt P9WJN1).
T1 sequence (P9WJN1 whole entry): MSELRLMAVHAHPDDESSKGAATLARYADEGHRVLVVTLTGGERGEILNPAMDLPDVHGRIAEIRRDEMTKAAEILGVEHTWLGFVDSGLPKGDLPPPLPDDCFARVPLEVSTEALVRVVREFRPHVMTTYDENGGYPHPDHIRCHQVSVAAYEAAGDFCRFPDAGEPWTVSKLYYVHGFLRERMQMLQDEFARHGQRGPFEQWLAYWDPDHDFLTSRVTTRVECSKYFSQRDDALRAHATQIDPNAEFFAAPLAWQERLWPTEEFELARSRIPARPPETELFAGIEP
The assay can be described thus: Inhibition of Mycothiol -S-conjugate amidase (MCA) from mycobacterium tuberculosis.

For the molecule `COC1=C(Br)C[C@]2(OC=C1Br)ON=C(C(=O)NCCOc1c(Br)cc(CCN)cc1Br)[C@@H]2O`, the IC50 worked out at 20 µM. `COC1=C(Br)C[C@]2(OC=C1Br)ON=C(C(=O)NCCOc1c(Br)cc(C(O)CN)cc1Br)[C@@H]2O` (stereo partly specified) yielded an IC50 of 26 µM.

Consider `O=C(NCCSSc1ccc(F)cc1)/C(Cc1cccc(Br)c1)=N\O`, for which half-maximal inhibition (IC50) required 90 µM. Molecule `CC(=O)N[C@H](CS)C(=O)NC1C(OC2C(O)C(O)C(O)C(O)C2O)OC(CO)C(O)C1O` (stereo partly specified) yielded a half-maximal inhibitory concentration (IC50) of about 1 µM. Regarding `Nc1ccc(SSCCNC(=O)/C(Cc2ccc(O)c(Cl)c2)=N\O)cc1`, the half-maximal inhibitory concentration (IC50) amounted to 35 µM. `Nc1ccc(SSCCNC(=O)/C(Cc2cccc(Br)c2)=N\O)cc1` gave an IC50 of 185 µM. Molecule `O=C(NCCSSc1ccc(F)cc1)/C(Cc1cc(F)cc(F)c1)=N\O` showed an IC50 of 2720 µM.

Take `N=C(N)CCCCNC(=O)/C(Cc1cc(Br)c(OCCCN)c(Br)c1)=N/O`: the 50% inhibitory concentration (IC50) turned out to be 2.8 µM. This IC50 lies about 970-fold lower than the previous one.

`O=C(NCCSSc1ccc(F)cc1)/C(Cc1ccc(O)c(Cl)c1)=N\O` gave a half-maximal inhibitory concentration (IC50) of 37 µM. Compared with the last molecule, the IC50 is about 13-fold higher. With `Nc1ccc(SSCCNC(=O)/C(Cc2cc(F)cc(F)c2)=N\O)cc1`, the 50% inhibitory concentration (IC50) was 450 µM. The molecule `COC1=C(Br)[C@@H](O)[C@]2(C=C1Br)CC(C(=O)NCCc1[nH]c(N)nc1-c1cc(O)c3ncc(O)c(O)c3c1O)=NO2` gave an IC50 of 2 µM. This IC50 is about 220-fold lower than that of the molecule before.

`COC1=C(Br)C[C@]2(C=C1Br)CC(C(=O)NCCc1c[nH]c(N)n1)=NO2` had an IC50 of 100 µM. As to `NCCCOc1c(Br)cc(C/C(=N\O)C(=O)NCCc2c[nH]c(N)n2)cc1Br`, inhibition was half-maximal at 36 µM (IC50). `Cc1cccc(C)c1SSCCNC(=O)/C(Cc1cccc(Br)c1)=N/O` gave a half-maximal inhibitory concentration (IC50) of 65 µM. Molecule `CC(=O)N[C@H](CSCc1c(C)c(=O)n2c(=O)c(C)c(C)n12)C(=O)NC1C(OC2C(O)C(O)C(O)C(O)C2O)OC(CO)C(O)C1O` (stereo partly specified) [MYCOTHIOL BIMANE] had an IC50 of about 1 µM. In turn, `O=C(NCCSSCCNC(=O)/C(Cc1ccc(O)c(Br)c1)=N/O)/C(Cc1ccc(O)c(Br)c1)=N/O` [PSAMMAPLIN A] had a half-maximal inhibitory concentration (IC50) of 2.8 µM.
